Results published in PMC7037682, “Herb–Drug Interaction of Red Ginseng Extract and Ginsenoside Rc with Valsartan in Rats” (Molecules, 2020).
One block for each molecule: values may come before it.

How the values were obtained:
[1] = Plasma pharmacokinetics of ginsenosides in rats after 1-week repeated RGE; conditions: LC-MS/MS, after RGE 1.5 g/kg/day po for 1 week
Method: The rats were randomly divided into the control and RGE groups. The RGE group received a RGE suspension (1.5 g/mL/kg/day, in distilled water) for 7 days via oral gavage. The control group received distilled water for 7 days via oral gavage. After 1 h following the last RGE treatment, valsartan was injected intravenously to both groups via the tail vein at 1 mg/mL/kg (dissolved in DMSO: saline = 2:8, v/v). […] After centrifugation of the blood samples at 16,000× g for 10 min, aliquots (50 μL each) of plasma samples were stored at −80 °C until the analysis of ginsenosides and valsartan.
The residue was reconstituted with 100 μL of 70% methanol consisting of 0.1% formic acid. An aliquot (20 μL) from the sample was injected into the LC-MS/MS system.
After freezing the aqueous layer at −80 °C for 2 h, the upper organic layer was transferred to a clean tube and evaporated to dryness. […] An aliquot (20 μL) from the sample was injected into the LC-MS/MS system. The samples were eluted through an Omega Polar C18 column (2.1 mm × 100 mm, 3 µm particle size) (Phenomenex, Torrance, CA, USA) using a mobile phase consisting of 0.1% formic acid in water: 0.1% formic acid in methanol (15:85, v/v) at a flow rate of 0.2 mL/min.
Pharmacokinetic parameters were calculated from plasma concentration-time profile using non-compartment analysis of WinNonlin (version 5.1; Pharsights, Cary, NC, USA). The statistical significance was assessed by t-test using Statistical Package for the Social Sciences (version 24.0; SPSS Inc., Chicago, IL, USA).

UGT1A9 = conditions: cited from earlier work
Oatps = conditions: rats ref 29, 30; cited from earlier work
OATP1B1 and OATP1B3 = conditions: human ref 29, 30; cited from earlier work
in vivo [2] = conditions: rat, iv, 1 mg/kg
Method: (§1) The rats were randomly divided into the control and rifampin groups. […] Quantification was performed in the selected reaction-monitoring mode at m/z 436.1 → 291.0 for valsartan and m/z 336.1 → 320.0 for berberine. […] The intraday and interday precision ranged from 1.80% to 9.23%.

in vivo [3] = conditions: rat, iv, 1 mg/kg; remark: listed apart in the source
Method: Quantification was performed in the selected reaction-monitoring mode at m/z 436.1 → 291.0 for valsartan and m/z 336.1 → 320.0 for berberine. […] The intraday and interday precision ranged from 1.80% to 9.23%.

OATP1B1 = target: T1, OATP1B1 (Homo sapiens, UniProt Q9Y6L6); experiment: Valsartan uptake by HEK293-OATP1B1 cells versus mock cells; assay type: cell-based; parameters: host or cells: HEK293; conditions: 5 μM valsartan
T1 sequence (Q9Y6L6 1-691): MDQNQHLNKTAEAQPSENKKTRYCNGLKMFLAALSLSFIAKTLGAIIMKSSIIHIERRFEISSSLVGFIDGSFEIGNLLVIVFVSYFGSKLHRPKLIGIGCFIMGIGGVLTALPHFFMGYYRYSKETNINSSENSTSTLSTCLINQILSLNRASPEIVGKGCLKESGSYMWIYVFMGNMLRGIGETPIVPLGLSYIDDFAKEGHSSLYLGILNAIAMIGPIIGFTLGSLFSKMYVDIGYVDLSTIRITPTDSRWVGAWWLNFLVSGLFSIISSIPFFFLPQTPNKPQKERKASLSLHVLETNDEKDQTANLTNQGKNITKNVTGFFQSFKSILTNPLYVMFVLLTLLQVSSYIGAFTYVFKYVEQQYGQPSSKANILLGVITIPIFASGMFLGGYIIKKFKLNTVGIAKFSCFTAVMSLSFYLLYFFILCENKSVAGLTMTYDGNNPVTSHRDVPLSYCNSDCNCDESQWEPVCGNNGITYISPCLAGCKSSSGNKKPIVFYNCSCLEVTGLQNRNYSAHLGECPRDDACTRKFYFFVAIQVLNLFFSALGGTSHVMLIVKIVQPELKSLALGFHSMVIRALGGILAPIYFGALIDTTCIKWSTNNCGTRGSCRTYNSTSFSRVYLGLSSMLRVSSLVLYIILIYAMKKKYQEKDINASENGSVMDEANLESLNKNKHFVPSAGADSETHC
Method: (§2) The uptake of valsartan 5 (μM)was measured for 5 min immediately after adding aliquots (100 μL) of HBSS containing 5 μM valsartan in the presence or absence of rifampin (1–100 μM) or tri-glycosylated PPD-type ginsenosides (Rb1, Rb2, and Rc; 0.1–100 μM) to the HEK293-mock cells and HEK293-OATP1B1 and –OAPT1B3 cells after aspirating pre-incubated HBSS. […] After the centrifugation of cell lysate samples (16,000× g, 5 min, 4 °C), aliquots (4 μL) of cell lysate samples were injected into LC-MS/MS system for the analysis of valsartan. Transporter mediated uptake of probe substrates or valsartan was calculated by subtracting the uptake rate of probe substrates or valsartan into HEK293-mock cells from that into HEK293 cells expressing respective transporters.

OATP1B3 = target: T2, OATP1B3 (Homo sapiens, UniProt Q9NPD5); experiment: Valsartan uptake by HEK293-OATP1B3 cells versus mock cells; assay type: cell-based; parameters: host or cells: HEK293; conditions: 5 μM valsartan
T2 sequence (Q9NPD5 1-702): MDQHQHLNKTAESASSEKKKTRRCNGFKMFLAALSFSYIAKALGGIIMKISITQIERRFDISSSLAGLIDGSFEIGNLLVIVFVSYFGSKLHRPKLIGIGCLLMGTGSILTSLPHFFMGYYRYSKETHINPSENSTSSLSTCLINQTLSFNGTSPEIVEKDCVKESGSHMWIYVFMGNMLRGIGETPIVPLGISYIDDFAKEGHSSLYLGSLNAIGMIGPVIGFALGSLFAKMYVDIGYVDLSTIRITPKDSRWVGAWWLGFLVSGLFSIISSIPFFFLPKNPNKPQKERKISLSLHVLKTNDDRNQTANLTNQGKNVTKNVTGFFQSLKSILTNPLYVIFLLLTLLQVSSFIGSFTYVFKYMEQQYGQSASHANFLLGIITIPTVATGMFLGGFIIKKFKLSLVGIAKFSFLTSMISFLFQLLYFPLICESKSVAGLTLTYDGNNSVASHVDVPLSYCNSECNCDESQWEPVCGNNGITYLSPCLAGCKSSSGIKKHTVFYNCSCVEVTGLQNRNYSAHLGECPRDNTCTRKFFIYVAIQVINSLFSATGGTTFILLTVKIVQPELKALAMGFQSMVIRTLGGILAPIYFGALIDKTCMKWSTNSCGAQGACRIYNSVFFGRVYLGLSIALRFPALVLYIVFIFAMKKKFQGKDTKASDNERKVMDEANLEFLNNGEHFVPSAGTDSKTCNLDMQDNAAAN
Method: as §2

[4] = Pharmacokinetics of iv valsartan in rats with or without repeated iv Rc; assay type: in vivo; conditions: rat, plasma, 1 mg/kg, valsartan 1 mg/kg iv; for AUC(0-t): read-out: AUC24h
Method: as §1, with “Rc” for “rifampin”, “groups. The Rc group was injected with Rc solution (3 mg/mL/kg, dissolved in saline) intravenously via the tail vein for 5 consecutive days. The control group received saline (1 mL/kg) for 5 consecutive days via the tail vein.” for “groups.”

[5] = after Rc 3 mg/kg/day iv for 5 days

detection in rat plasma [1]: not detected
SMILES: CC(C)=CCC[C@](C)(O[C@@H]1O[C@H](CO)[C@@H](O)[C@H](O)[C@H]1O)[C@H]1CC[C@]2(C)[C@@H]1[C@H](O)C[C@@H]1[C@@]3(C)CC[C@H](O)C(C)(C)[C@@H]3[C@@H](O)C[C@]12C [F1]
IC50 UGT1A9 (UGT1A9): did not inhibit

C0 (in vivo [2]): 1633.08 ± 1308.67 ng/mL | MRT (in vivo [2]): 3.37 ± 0.83 h | T1/2 (in vivo [2]): 2.79 ± 0.32 h | Vd (in vivo [2]): 0.05503 ± 0.02629 L/kg | C0 (in vivo [2]; C0): 1170 ± 119 ng/mL | clearance (in vivo [2]; CL): 26 ± 6.3 mL/min/kg | MRT (in vivo [2]; MRT): 2.99 ± 0.47 h | half-life (in vivo [2]; T1/2): 4.48 ± 1.24 h | Vd (in vivo [2]; Vd): 4.7 ± 1.54 L/kg | AUC24h (in vivo [3]): 776.59 ± 228.82 ng·h/mL | C0 (in vivo [3]): 781.47 ± 211.04 ng/mL | MRT (in vivo [3]): 3.81 ± 0.05 h | T1/2 (in vivo [3]): 4.59 ± 0.73 h | Vd (in vivo [3]): 0.08538 ± 0.02582 L/kg | AUC(0-t) (in vivo [3]; AUC24h): 859 ± 234 ng·h/mL | AUC(0-inf) (in vivo [3]; AUC∞): 882 ± 247 ng·h/mL | C0 (in vivo [3]; C0): 648 ± 50.5 ng/mL | clearance (in vivo [3]; CL): 20 ± 5.48 mL/min/kg | MRT (in vivo [3]; MRT): 3.76 ± 1.16 h | half-life (in vivo [3]; T1/2): 4.55 ± 0.98 h | Vd (in vivo [3]; Vd): 4.33 ± 0.922 L/kg | Valsartan uptake increase, HEK293-OATP1B1 vs HEK293-mock (OATP1B1): 19.8 fold | Valsartan uptake increase, HEK293-OATP1B3 vs HEK293-mock (OATP1B3): 26.1 fold | AUC(0-inf) [4, 5]: 836 ± 112 ng·h/mL | C0 [4, 5]: 1450 ± 998 ng/mL | MRT [4, 5]: 2.94 ± 1.52 h | Vd [4, 5]: 3.46 ± 1.64 L/kg | clearance [4, 5]: 20.2 ± 2.86 mL/min/kg | half-life [4, 5]: 3.3 ± 1.51 h | AUC(0-t) [4, 5]: 809 ± 112 ng·h/mL | AUC(0-inf) ([4]; control group of Rc study): 657 ± 84.9 ng·h/mL | C0 ([4]; control group of Rc study): 401 ± 77.8 ng/mL | MRT ([4]; control group of Rc study): 2.27 ± 0.67 h | Vd ([4]; control group of Rc study): 3.43 ± 0.794 L/kg | clearance ([4]; control group of Rc study): 25.7 ± 3.5 mL/min/kg | half-life ([4]; control group of Rc study): 2.41 ± 1.3 h | AUC(0-t) ([4]; control group of Rc study): 639 ± 80.7 ng·h/mL
SMILES: CCCCC(=O)N(Cc1ccc(-c2ccccc2-c2nnn[nH]2)cc1)[C@H](C(=O)O)C(C)C [Valsartan, valsartan]
contribution of Oatp transporters in the hepato-biliary excretion (Oatps): 70–85% | contribution of Oatp transporters in the hepato-biliary excretion (OATP1B1 and OATP1B3): 70–85%

detection in rat plasma [1]: not detected
SMILES: CC(C)=CCC[C@](C)(O[C@@H]1O[C@H](CO)[C@@H](O)[C@H](O)[C@H]1O)[C@H]1CC[C@]2(C)[C@@H]1[C@H](O)C[C@@H]1[C@@]3(C)CC[C@H](O[C@@H]4O[C@H](CO)[C@@H](O)[C@H](O)[C@H]4O)C(C)(C)[C@@H]3CC[C@]12C [F2]

SMILES: CC(C)=CCC[C@](C)(O)[C@H]1CC[C@]2(C)[C@@H]1[C@H](O)C[C@@H]1[C@@]3(C)CC[C@H](O)C(C)(C)[C@@H]3[C@@H](O[C@@H]3O[C@H](CO)[C@@H](O)[C@H](O)[C@H]3O[C@@H]3O[C@H](CO)[C@@H](O)[C@H](O)[C@H]3O)C[C@]12C [Rf]
IC50 UGT1A9 (UGT1A9): did not inhibit
